From PMC7765930, “Antiproliferative Phenanthrenes from Juncus tenuis: Isolation and Diversity-Oriented Semisynthetic Modification” (Molecules, 2020)
Read-outs that look alike come from different tables or passages of the source.

Key:
[1] = tested on: HeLa human cervix carcinoma cell line; assay: MTT antiproliferative assay, HeLa; format: cell-based; settings: 72 h, 100–0.19 μM, read-out: IC50 (µM) ± SD HeLa
Method: (§1) Breast cancer cell line MCF-7 (ATCC® HTB-22) and the drug-resistant subline of the human breast cancer MCF-7 (ECACC 86012803; KCR) were purchased from LGC Promochem (Teddington, UK). Both cell lines were cultured in Eagle’s Minimal Essential Medium (EMEM, containing 4.5 g/L glucose) supplemented with a non-essential amino acid mixture, a selection of vitamins, and 10% heat-inactivated fetal bovine serum. In every third passage, 0.56 µg/mL doxorubicin was added to the medium, in order to maintain the ABCB1 (P-glycoprotein) expression in KCR cells. A2780 human ovarian cancer cell line (ECACC, European Collection of Authentical Cell Culture, Sigma Cat.no. 93112519) was purchased from Merck KGaA (Darmstadt, Germany). The cisplatin-resistant human ovarian cancer cell line A2780cis (ECACC European Collection of Authentical Cell Culture, Sigma Cat.no. 93112517) was purchased from Merck KGaA (Darmstadt, Germany). The human ovarian cancer cell lines were cultured in RPMI 1640 medium supplemented with 10% heat-inactivated fetal bovine serum. […] HeLa (ATCC® CCL-2™) human cervix carcinoma cell line was purchased from LGC Promochem (Teddington, UK). The cells were cultured in Eagle’s Minimal Essential Medium (EMEM, containing 4.5 g/L glucose) supplemented with a non-essential amino acid mixture, a selection of vitamins, and 10% heat-inactivated fetal bovine serum. MRC-5 human embryonal lung fibroblast cell line (ATCC® CCL-171) was purchased from LGC Promochem, Teddington, UK. The cell line was cultured in Eagle’s Minimal Essential Medium (EMEM, containing 4.5 g/L glucose) supplemented with a non-essential amino acid mixture, a selection of vitamins, and 10% heat-inactivated fetal bovine serum. HTB-26 breast adenocarcinoma cell line was purchased from LGC Promochem, Teddington, UK. The cell line was cultured in RPMI 1640 medium supplemented with 10% heat-inactivated fetal bovine serum. T-47D (ATCC® HTB-133™) ductal carcinoma cell line was purchased from LGC Promochem, Teddington, UK. The cells were cultured in RPMI 1640 medium supplemented with 10% heat-inactivated fetal bovine serum, 2 mM L-glutamine, 1 mM Na-pyruvate, and 100 mM Hepes. All of the cells were incubated at 37 °C, in a 5% CO2 and 95% air atmosphere.
(§2) The antiproliferative effect of the compounds was determined on human breast (MCF-7, KCR, T47D, and HTB-26), cervical (HeLa), and ovarian (A2780 and A2780cis) cancer cells, and on MRC-5 (human embryonic lung fibroblast) cell lines. The adherent cells were cultured in 96-well flat-bottomed microtiter plates, using EMEM supplemented with 10% heat-inactivated fetal bovine serum or RPMI 1640 supplemented with 10% heat-inactivated fetal bovine serum, respectively. The density of the cells was adjusted to 6 × 10^3 cells in 100 μL per well, the cells were seeded for 24 h at 37 °C, with 5% CO2, and then the medium was removed from the plates, and fresh medium (100 μL per well) was added to the cells. The effects of increasing concentrations of compounds on cell proliferation were tested in 96-well flat-bottomed microtiter plates. The compounds were diluted in the appropriate medium; the dilutions of compounds were performed in separate plates and then added to the cells. The starting concentration of the compounds was 100 μM, and two-fold serial dilution was performed (concentration range: 100–0.19 μM). The culture plates were incubated at 37 °C for 72 h; at the end of the incubation period, 20 μL of MTT (thiazolyl blue tetrazolium bromide, Sigma) solution (from a stock solution of 5 mg/mL) was added to each well. After incubation at 37 °C for 4 h, 100 μL of sodium dodecyl sulfate (SDS) (Sigma) solution (10% in 0.01 M HCI) was added to each well, and the plates were further incubated, at 37 °C, overnight. Cell growth was determined by measuring the optical density (OD) at 540/630 nm, with a Multiscan EX ELISA reader (Thermo Labsystems, Cheshire, WA, USA). […]

[2] = tested on: T-47D ductal carcinoma cell line; assay: MTT antiproliferative assay, T47D; format: cell-based, human; settings: 72 h, 100–0.19 μM, read-out: IC50 (µM) ± SD T47D
Method: as §1, §2

Structure (SMILES)	IC50 ([1]; Homo sapiens, HeLa) [µM]	IC50 ([2]; Homo sapiens, T47D) [µM]	IC50 [1] [µM]	IC50 [2] [µM]
C=Cc1c(C)c(O)cc2c1-c1ccc(O)c(C)c1CC2 [juncusol]	0.5	25 ± 0.4		
C=CC1=CC(=O)C=C2CCC3=C(C=CC(=O)C3(C)OCC)C12OCC (stereo not drawn) [Compound 4a]	24.4 ± 0.8	11.6 ± 0.3		
C=CC1=CC(=O)C=C2CCC3=C(C=CC(=O)C3(C)OCC)C12OCC (stereo not drawn) [Compound 4b]			35 ± 1.5	14.2 ± 0.6
C=Cc1cc(O)cc2c1-c1ccc(O)c(C)c1CC2 [effusol]	2.3 ± 0.7	24.6 ± 1.9		
C=CC1=C(C)C(=O)C=C2CCC3=C(C=CC(=O)C3(C)OCC)C21OCC (stereo not drawn) [Compound 2b]			61.9 ± 0.3	30.3 ± 2.5
C=CC1=C(C)C(=O)C=C2CCC3=C(C=CC(=O)C3(C)OC)C21OC (stereo not drawn) [Compound 1b]	> 100	36.5 ± 1		
C=CC1=CC(=O)C=C2CCC3=C(C=CC(=O)C3(C)OC)C12OC (stereo not drawn) [Compound 3]	12.9 ± 0.4	7 ± 1		
C=CC1=C(C)C(=O)C=C2CCC3=C(C=CC(=O)C3(C)OCC)C21OCC (stereo not drawn) [Compound 2a]	94.7 ± 3.4	56.3 ± 3.4		
N.N.[Cl][Pt][Cl] [Cisplatin, cisplatin, reference compound]			2.3 ± 0.1	5.9 ± 0.1
